In patent US7132437B2, “Renal-selective biphenylalkyl 1H-substituted-1,2,4-triazole angiotensin II antagonists for treatment of hypertension” (G.D. Searle, priority 1990, dated 2006):
pIC50: −log10 of the molar value. Values belong to the compound of their own block, whether it stands above or below them.

How the values were obtained:
[1] = molecular target: T1, smooth muscle angiotensin II receptor; assay: Assay A: Angiotensin II Binding Activity; settings: rat uterine membrane preparation, displacement of 125I-AII
T1 construct: Rat uterine membranes were prepared from fresh tissue
Procedure: Assay A: Angiotensin II Binding Activity
Compounds of Formula I were tested for ability to bind to the smooth muscle angiotensin II receptor using a rat uterine membrane preparation. […] Other chemicals were obtained from Sigma Chemical Co. This assay was carried out according to the method of Douglas et al [Endocrinology, 106, 120–124 (1980)]. Rat uterine membranes were prepared from fresh tissue. All procedures were carried out at 4° C. Uteri were stripped of fat and homogenized in phosphate-buffered saline at pH 7.4 containing 5 mM EDTA. The homogenate was centrifuged at 1500×g for 20 min., and the supernatant was recentrifuged at 100,000×g for 60 min. The pellet was resuspended in buffer consisting of 2 mM EDTA and 50 mM Tris-HCl (pH 7.5) to a final protein concentration of 4 mg/ml. […] The reaction was initiated by the addition of membrane protein and the mixture was incubated at 25° C. for 60 min. The incubation was terminated with ice-cold 50 mM Tris-HCl (pH 7.5) and the mixture was filtered to separate membrane-bound labelled peptide from the free ligand. The incubation tube and filter were washed with ice-cold buffer. Filters were assayed for radioactivity in a Micromedic gamma counter. Nonspecific binding was defined as binding in the presence of 10 μM of unlabelled AII. Specific binding was calculated as total binding minus nonspecific binding. […] Binding data were analyzed by a nonlinear least-squares curve fitting program.

[2] = tested on: rabbit aortic rings; assay: Assay B: In Vitro Vascular Smooth Muscle Response for AII; assay type: cell-based; settings: antagonist at 10^-5 M, two values per cell = aorta rings from two rabbits; for Kb: Oryctolagus cuniculus, read-out: Assay B pA2 (converted)
Procedure: Assay B: In Vitro Vascular Smooth Muscle-Response for ATT
Compounds of Formula I were tested for antagonist activity in rabbit aortic rings. Male New Zealand white rabbits (2–2.5 kg) were sacrificed using an overdose of pentobarbital and exsanguinated via the carotid arteries. The thoracic aorta was removed, cleaned of adherent fat and connective tissue and then cut into 3-mm ring segments. The endothelium was removed from the rings by gently sliding a rolled-up piece of filter paper into the vessel lumen. The rings were then mounted in a water-jacketed tissue bath, maintained at 37° C., between moveable and fixed ends of a stainless steel wire with the moveable end attached to an FT03 Grass transducer coupled to a Model 7D Grass Polygraph for recording isometric force responses. The bath was filled with 20 ml of oxygenated (95% oxygen/5% carbon dioxide) Krebs solution of the following composition […]: 130 NaCl, 15 NaHCO3, 15 KCl, 1.2 NaH2PO4, 1.2 MgSO4, 2.5 CaCl2, and 11.4 glucose. The preparations were equilibrated for one hour before approximately one gram of passive tension was placed on the rings. Angiotensin II concentration-response curves were then recorded (3×10^−10 to 1×10–5 M). Each concentration of AII was allowed to elicit its maximal contraction, and then AII was washed out repeatedly for 30 minutes before rechallenging with a higher concentration of AII. Aorta rings were exposed to the test antagonist at 10^−5 M for 5 minutes before challenging with AII. Adjacent segments of the same aorta ring were used for all concentration-response curves in the presence or absence of the test antagonist. The effectiveness of the test compound was expressed in terms of pA2 values and were calculated according to H. O. Schild [Br. J. Pharmacol. Chemother., 2, 189–206 (1947)]. […] Each test antagonist was evaluated in aorta rings from two rabbits.

[3] = tested on: AII pressor response; assay: Assay C: In Vivo Intraduodenal Pressor Assay Response for AII Antagonists; design: species or system Sprague-Dawley rats
Procedure: Assay C: In Vivo Intraduodenal Pressor Assay Response for AII Antagonists
Male Sprague-Dawley rats weighing 225–300-grams were anesthetized with Inactin (100 mg/kg, i.p.) and catheters were implanted into the trachea, femoral artery, femoral vein and duodenum. Arterial pressure was recorded from the femoral artery catheter on a Gould chart recorder (Gould, Cleveland, Ohio). The femoral vein catheter was used for injections of angiotensin II, mecamylamine and atropine. The tracheal catheter allow for airway patency, and the duodenal catheter was used for intraduodenal (i.d.) administration of test compounds. After surgery, the rats were allowed to equilibrate for 30 minutes. Mecamylamine (3 mg/kg, 0.3 ml/kg) and atropine (400 ug/kg, 0.3 ml/kg) were then given i.v. to produce ganglion blockade. These compounds were administered every 90 minutes throughout the test procedure. Angiotensin II was given in bolus does i.v. (30 ng/kg in saline with 0.5% bovine serum albumin, 0.1 ml/kg) every 10 minutes three times or until the increase in arterial pressure produced was within 3 mmHg for two consecutive AII injections. The last two AII injections were averaged and were taken as the control AII pressor response. […] Angiotensin II injections were then given 5, 10, 20, 30, 45, 60, 75, 90, and 120 minutes after administration of the test compound and response of arterial pressure was monitored. The response to AII was calculated as percent of the control response and then the percent inhibition is calculated as 100 minus the percent control response. Duration of action of a test compound was defined as the time from peak percent inhibition to 50% of peak. One compound at one dose was tested in each rat. Each test compound was tested in two rats and the values for the two rats were averaged.

[4] = Rattus norvegicus, intraduodenal, 30 mg/kg intraduodenally
[5] = Rattus norvegicus, intraduodenal, 100 mg/kg intraduodenally

SMILES: CCCCc1nc(C2CCCCC2)n(Cc2ccc(-c3ccccc3-c3nnn[nH]3)cc2)n1 [Example 65, 5-[4′-[(3-butyl-5-cyclohexyl-1H-1,2,4-triazol-1-yl)methyl][1,1′-biphenyl]-2-yl]-1H-tetrazole]
melting point: 157.5 to 159.5 °C

SMILES: CCCCc1nc(C(=O)CCC)nn1Cc1ccc(-c2ccccc2-c2nnn[nH]2)cc1 [Example 30]
melting point: 150.5 to 152.5 °C

SMILES: CCCCCCCCc1nc(CCCC)nn1Cc1ccc(-c2ccccc2-c2nnn[nH]2)cc1 (single isomer, unassigned) [Example 28, 5-[4′-[(3-butyl-5-octyl-1H-1,2,4-triazol-1-yl)methyl][1,1′-biphenyl]-2-yl]-1H-tetrazole]
pIC50 [1]: 6.24
melting point: 136.5 to 138 °C

SMILES: CCCCc1nc(CCc2ccccc2)nn1Cc1ccc(-c2ccccc2-c2nnn[nH]2)cc1 (single isomer, unassigned) [Example 26]
pIC50 [1]: 8.49
Assay B pA2 [2]: 9.66
melting point: 156 to 157.2 °C

SMILES: CCCCc1nc(Cl)nn1Cc1ccc(-c2ccccc2C(=O)O)cc1 (single isomer, unassigned) [Example 6, 4′-[(5-butyl-3-chloro-1H-1,2,4-triazol-1-yl)methyl][1,1′-biphenyl]-2-carboxylic acid]
Assay B pA2 [2]: 6.82
Assay C Duration ([3]; 100 mg/kg intraduodenally): 120 min

SMILES: CCCCc1nc(CC(=O)O)nn1Cc1ccc(-c2ccccc2-c2nnn[nH]2)cc1 [Example 7, 5-[4′-[(5-butyl-3-carboxymethyl-1H-1,2,4-triazol-1-yl)methyl][1,1′-biphenyl]-2-yl]-1H-tetrazole]
pIC50 [1]: 7.08
Kb [2]: 0.00977 µM
Assay C Duration ([3]; 30 mg/kg intraduodenally): 130 min
inhibition at 30 mg/kg [3, 4]: 90%

SMILES: CCCCc1nc(-c2ccccc2)n(Cc2ccc(-c3ccccc3-c3nnn[nH]3)cc2)n1 (single isomer, unassigned) [Example 22, 5-[4′-[(3-butyl-5-phenyl-1H-1,2,4-triazol-1-yl)methyl](1,1′-biphenyl)-2-yl]-1H-tetrazole]
pIC50 [1]: 6.34
Assay B pA2 [2]: 6.46
melting point: 205 °C (dec.)

SMILES: CCCCc1nc(CN)nn1Cc1ccc(-c2ccccc2-c2nnn[nH]2)cc1 [Example 3, 5-[4′-[(3-aminomethyl-5-butyl-1H-1,2,4-triazol-1-yl)methyl][1,1′-biphenyl]-2-yl]-1H-tetrazole]
pIC50 [1]: 8.27
Kb [2]: 0.002 µM
Assay C Duration ([3]; 10 mg/kg intragastrically): >180 min
Assay C Duration ([3]; 30 mg/kg intragastrically): 200^+ min.
inhibition at 10 mg/kg ([3]; Rattus norvegicus, po, 10 mg/kg intragastrically): 50%
inhibition at 30 mg/kg ([3]; Rattus norvegicus, po, 30 mg/kg intragastrically): 100%

SMILES: CCCCc1nc(CCCN)nn1Cc1ccc(-c2ccccc2-c2nnn[nH]2)cc1 [Example 5, 5-[4′-[[3-(3-aminopropyl)-5-butyl-1H-1,2,4-triazol-1-yl]methyl][1,1′-biphenyl]-2-yl]-1H-tetrazole]
pIC50 [1]: 6.70
Assay C Duration ([3]; 30 mg/kg intraduodenally): 20 to 30 min
inhibition at 30 mg/kg [3, 4]: 38%

SMILES: CCCCc1nc(C(F)(F)CCC)nn1Cc1ccc(-c2ccccc2C(=O)O)cc1 [Example 10]
Assay C Duration ([3]; 3 mg/kg intraduodenally, time from peak percent inhibition to 50% of peak): 100 min
Assay C Duration ([3]; 30 mg/kg intraduodenally): 240 min
inhibition at 3 mg/kg ([3]; Rattus norvegicus, intraduodenal): 86%
inhibition at 30 mg/kg [3, 4]: 100%

SMILES: O=C(O)c1ccccc1-c1ccc(Cn2nc(C(F)(F)C(F)(F)C(F)(F)F)nc2C(F)(F)C(F)(F)C(F)(F)F)cc1 [Example 20, 4′-[(3,5-di-perfluoropropyl-1H-1,2,4-triazol-1-yl)methyl][1,1′-biphenyl]-2-carboxylic acid]
Kb [2]: 1.29 µM
Assay C Duration ([3]; 100 mg/kg intraduodenally): 45 min
inhibition at 100 mg/kg [3, 5]: 10%

The next lines start with results.

pIC50 [1]: 6.37
melting point: 152.5 to 153.5 °C
SMILES: CCCCc1nc(C(OC)OC)n(Cc2ccc(-c3ccccc3-c3nnn[nH]3)cc2)n1 (single isomer, unassigned) [Example 23, 5-[4′-[[3-butyl-5-(dimethoxymethyl)-1H-1,2,4-triazol-1-yl]methyl][1,1′-biphenyl]-2-yl]-1H-tetrazole]

melting point: 125 to 127 °C
SMILES: CCCCc1nc(C2CCCCC2)nn1Cc1ccc(-c2ccccc2-c2nnn[nH]2)cc1 [Example 66, 5-[4′-[(5-butyl-3-cyclohexyl-1H-1,2,4-triazol-1-yl)methyl][1,1′-biphenyl]-2-yl]-1H-tetrazole]

pIC50 [1]: 7.06
melting point: 113 °C (dec.)
SMILES: CCCCc1nc(-c2ccccc2)nn1Cc1ccc(-c2ccccc2-c2nnn[nH]2)cc1 (single isomer, unassigned) [Example 21, 5-[4′-[(3-phenyl-5-butyl-1H-1,2,4-triazol-1-yl)methyl](1,1′-biphenyl)-2-yl]-1H-tetrazole]

pIC50 [1]: 6.15
SMILES: CCCCc1nc(CCC(=O)O)nn1Cc1ccc(-c2ccccc2-c2nnn[nH]2)cc1 [Example 9, 5-[4′-[[5-butyl-3-(2-carboxyethyl)-1H-1,2,4-triazol-1-yl]methyl][1,1′-biphenyl]-2-yl]-1H-tetrazole]
Assay C Duration ([3]; 30 mg/kg intraduodenally): 75 min
Assay C Duration ([3]; 100 mg/kg intraduodenally): 130 min
inhibition at 30 mg/kg [3, 4]: 80%
inhibition at 100 mg/kg [3, 5]: 100%

pIC50 [1]: 7.80
melting point: 170 to 170.5 °C
SMILES: CCCCc1nc(C)nn1Cc1ccc(-c2ccccc2-c2nnn[nH]2)cc1 (single isomer, unassigned) [Example 32, 5-[4′-[(5-butyl-3-methyl-1H-1,2,4-triazol-1-yl)methyl][1,1′-biphenyl]-2-yl]-1H-tetrazole]
